Assay results taken from patent publication US20110104301A1, “METHODS OF REDUCING PAIN AND INFLAMMATION” (Georgetown University, A Congressionally Chartered …, priority 2008, published 2011).

Molecular target: TRPV1 (Rattus norvegicus, UniProt O35433)
Assay: Whole-cell patch-clamp of TRPV1-expressing HEK293 cells
Type: cell-based
Set-up: expressed in transfected cells; host or cells: HEK 293F (Invitrogen), co-transfected with GFP cDNA
Experimental: Electrophysiology. […] Whole-cell and single-channel patch-clamp recordings were performed by using an EPC8 amplifier (HEKA Electronics). For whole-cell and excised patch recordings the bath solution contained 140 mMNaCl, 4 mMKCl, 1 mMMgCl2, 1.2 mMCaCl2, 10 mMHepes, 10 mM glucose, pH 7.3. For cell-attached experiments, NaCl was replaced with KCl in the bath solution. […] For neuronal recording NaCl was replaced with K-gluconate (plus 1 mMATP, 0.2 mM GTP). Solutions were applied via a gravity-fed system. […] Voltage-dependent properties were measured as described in Matt and Ahern, J. Physiol. […] The baseline currents under control conditions were subtracted. For cell-attached experiments, peak amplitudes were measured from all-points histograms, and open probability was measured as NPo>750 ms. Defolliculated Xenopus laevis oocytes were injected with ≈10 ng of hTRPA1 (gift of Ardem Patapoutian, The Scripps Research Institute, La Jolla, Calif.).
HEK cell and sensory neuron electrophysiology. […] Cell cultures were maintained at 37° C. with 5% CO2. Cells were transfected with rat TRPV 1 (gift of David Julius), and GFP cDNA using Lipofectamine™ Transfection Reagent (Invitrogen) and used 24-48 h after transfection. Nodose ganglia were obtained from adult mice (C57B16/J and TRPV1-null), cut, digested with collagenase, and cultured in Neurobasal +2% B-27 medium (Invitrogen), 0.1% L-glutamine and 1% penicillin/streptomycin on poly-D lysine-coated glass coverslips at 37° C. in 5% CO2. Neurons were used within 24-36 hr of culture. Whole-cell and single-channel patch clamp recordings were performed using an EPC8 amplifier (HEKA). The current signal was low-pass filtered at 1-3 kHz and sampled at 4 kHz. Currents were further filtered for display purposes. For whole-cell and excised patch recordings the bath solution contained (in mM): 140 NaCl, 4 KCl, 1 MgCl2, 1 EGTA, 10 HEPES, 10 glucose pH 7.3 (290 mOsm). The pipette solution contained (in mM): 140 CsC1, 10 NaCl, 10 HEPES, 5 EGTA, 2 Mg ATP and 0.03 GTP, pH 7.3. The peak amplitudes measured either during the prepulse or the tail current (within 1 ms) were plotted as a function of the test potential and normalized to the maximal current obtained from the following Boltzmann function: […]

TRPV1, sequence (O35433 whole entry): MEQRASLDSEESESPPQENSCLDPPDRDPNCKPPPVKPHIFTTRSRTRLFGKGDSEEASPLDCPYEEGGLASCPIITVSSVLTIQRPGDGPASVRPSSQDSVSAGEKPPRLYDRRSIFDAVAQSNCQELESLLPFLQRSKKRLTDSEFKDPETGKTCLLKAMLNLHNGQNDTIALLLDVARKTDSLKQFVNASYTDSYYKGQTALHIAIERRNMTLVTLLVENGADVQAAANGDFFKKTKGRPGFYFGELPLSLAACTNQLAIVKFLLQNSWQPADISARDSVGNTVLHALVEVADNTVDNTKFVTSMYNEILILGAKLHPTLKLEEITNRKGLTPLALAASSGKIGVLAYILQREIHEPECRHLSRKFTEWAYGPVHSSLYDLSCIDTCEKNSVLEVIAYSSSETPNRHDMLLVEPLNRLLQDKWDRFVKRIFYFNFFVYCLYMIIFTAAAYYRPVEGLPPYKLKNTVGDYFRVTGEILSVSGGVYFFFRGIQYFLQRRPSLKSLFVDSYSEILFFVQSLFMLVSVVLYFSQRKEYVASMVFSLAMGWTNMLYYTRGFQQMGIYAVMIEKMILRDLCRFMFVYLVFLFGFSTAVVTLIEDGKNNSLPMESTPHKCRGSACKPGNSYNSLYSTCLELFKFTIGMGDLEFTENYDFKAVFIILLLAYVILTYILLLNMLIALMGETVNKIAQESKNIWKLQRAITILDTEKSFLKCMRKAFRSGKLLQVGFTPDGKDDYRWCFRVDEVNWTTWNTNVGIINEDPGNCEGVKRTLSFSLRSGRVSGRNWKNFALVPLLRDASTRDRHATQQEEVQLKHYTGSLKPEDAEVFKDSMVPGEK

How did the “Activation of TRPV1 currents” value (0.9 mM (2.9 MAC)) turn out when `FC(F)OC(Cl)C(F)(F)F` (stereo not shown) [isoflurane] was run?
The value was “failed to activate”.

And the “Currents evoked after PDBu treatment in TRPV1-expressing HEK293 cells” value (VGA 0.9 mM, PDBu 500 nM, room temperature (25° C.))?
Its value is “activates currents”.

What about the “Effect on TRPV1 when applied together with saturating octanol” value (isoflurane 0.9 mM + octanol 1.8 mM) of the same compound?
Its value is “negligible effects”.

What about the “Enhancement of maximal voltage-evoked TRPV1 current” value (isoflurane 0.9 mM, n=5) of the same compound?
The value was 15±6%.

And the “Reduction of TRPV1 V1/2” value (isoflurane 0.9 mM, n=5)?
The value was 23.0±6.2 mV.

And the “Effects at TRPV1 at holding potential −50 mV” value (isoflurane 0.9 mM, octanol 1 mM)?
The value was “negligible effects”.

What about the “V1/2 of TRPV1 voltage activation with isoflurane (Boltzmann fit)” value (isoflurane 0.9 mM, control 161.5±2.7 mV) of the same compound?
Its value is 129.0±3.6 mV.
